The test system of the assay is Leukocytes isolated from normal healthy individuals. The experiment in a line: In vitro release from leukocytes adhered to polysulfone membranes, with or without LPS. Type of assay: cell-based, human. The protocol:
Leukocytes were isolated from normal healthy individuals using established methods. The leukocytes (10^6 cells per well) were placed into 12-well tissue culture plates containing 14×14 mm squares of polysulfone membranes (Fresenius, Walnut Creek, Calif.) and allowed to adhere for 60 minutes at 37° C. in RPMI media. The media was removed, cells washed with PBS, and the removed supernatants were analyzed for cell release. RPMI media with citrate (Cai=0.25 mmol/L) or without citrate (Cai=0.89 mmol/L) was used to achieve the Cai levels described in Table 5 below. Each calcium condition also had media with or without lipopolysaccharide (LPS, 1 μg/mL) to activate the leukocytes.
The cells were exposed to these conditions for […] and removed from the media to assess release of lactoferrin (LF) and myeloperoxidase (MPO), proteins in exocytotic vesicles from neutrophils, and cytokines, IL-6 and IL-8, released from leukocytes. These compounds were assayed with commercially available Elisa kits (R & D Systems, Cell Sciences, and EMD BioSciences).

Setting [1] is: with LPS (1 μg/mL), citrate media Cai 0.25 mmol/L, 60 seconds.
[2] abbreviates: without LPS, citrate media Cai 0.25 mmol/L, 60 seconds.

The text below walks through data of patent publication US8425447B2, “Selective cytopheresis devices and related methods thereof” (The Regents of the University of Michigan, priority 2007, dated 2013).

In the case of `O=C(O)CC(O)(CC(=O)O)C(=O)O` [Citrate], where the note is “citrate-containing media with low Cai, in contrast to normal Cai media”, the “increases in LF, MPO, IL-6, or IL-8 on LPS stimulation” value is “no increases”. Also, under setting [1], the “IL-6 release, Stimulated” value turned out to be 2.9 pg/mL/10^6 cells; the “IL-8 release, Stimulated” value came out at 19.4 ng/mL/10^6 cells; the “Lactoferrin release, Stimulated” value is on record as 187 ng/mL/10^6 cells; the “Myeloperoxidase release, Stimulated” value was 270 ng/mL/10^6 cells. Further, under setting [2], the “IL-6 release, Baseline” value stood at 3.3 pg/mL/10^6 cells; the “IL-8 release, Baseline” value came to 25.8 ng/mL/10^6 cells; the “Lactoferrin release, Baseline” value came to 221 ng/mL/10^6 cells; the “Myeloperoxidase release, Baseline” value was 268 ng/mL/10^6 cells.
